Paper PMC10179937, “Cytotoxic Activity, Topoisomerase I Inhibition and In Silico Studies of New Sesquiterpene-aryl Ester Derivatives of (-) Drimenol” (Molecules, 2023)
Like-named read-outs stand apart in the source and are kept apart here.

Assays:
[1] = test system: caspases 3 and 7 on MCF-7 cells; experiment: Caspase-Glo 3/7 assay; assay type: cell-based, human; settings: 50 μM, 24 h
Method: To determine the cell death type induced by the most promising aryl-drimane esters, we evaluated their capacity to induce apoptosis through the activation of caspases 3 and 7 on MCF-7 cells. For this purpose, 6a, 6e, 6f, 8c, 8f, and 8g were incubated for 24 h on MCF-7 cells at a concentration of 50 μM, close to the IC50 values for cytotoxicity in most compounds. […] In summary, these drimane derivatives induced apoptosis in the MCF-7 cell line, showing a potential antitumoral effect.
The activity of caspase 3/7 in treated MCF-7 cells was determined using a Caspase-Glo-3/7 Assay kit (Promega, UK—Cat. No G8090). The caspase-Glo 3/7 assay is a homogenous, luminescent assay that measures caspase-3 and -7 activities, both key-players in apoptosis. […] Luminescence was proportional to the amount of caspase present. MCF-7 cells (1 × 10^4 cells per well) were grown in a 96-well white plate and were allowed to adhere overnight. The cells were then treated for 24 h with the synthesized compounds (50 µM), with the inclusion of a blank as a control. After treatment, the Caspase-Glo® 3/7 was prepared according to the manufacturer’s guidelines. Briefly, 100 μL of Caspase-Glo 3/7 reagent was added to 100 μL of culture medium containing the cells previously treated in each well. The content was mixed gently by placing the plate on a shaker for 30 s, and the plate was incubated at room temperature in the dark for 1 h before luminescence was read on a luminometer (Berthold Sirius Single Tube Luminometer, Pforzheim, Germany). Fold change in caspase activity was obtained by first subtracting the luminescence value for the blank well from every other value, and then, expressing the average luminescence of each treatment as a fold change with respect to the average luminescence of the negative control.

[2] = test system: MCF-7 (breast adenocarcinoma); experiment: Sulforhodamine B in vitro growth inhibition assay, MCF-7; assay type: cell-based, human; settings: for Selectivity Index (SI) MCF-10/MCF-7: IC50 in non-cancerogenic cell line / IC50 in cancer cell line
Method: (§1) For this purpose, a colorimetric sulforhodamine B assay was performed to quantify the cytotoxic effect through their respective IC50 values. Each compound’s serial dilutions (12.5, 25, 50, and 100 µM) were evaluated in triplicate. In our study, the human cancer cell lines used were MCF-7 (breast adenocarcinoma); HT-29 (colorectal adenocarcinoma); PC-3 (prostate adenocarcinoma); and MCF-10 control cells (normal breast epithelium). For comparative purposes, the literature IC50 values of daunorubicin and 5-fluorouracil (5-FU), measured in the same cell lines and under the same experimental conditions, were included. Similarly, drimenol (1) was included for comparative purposes.
(§2) The sulforhodamine B assay was used. Briefly, the cells were set up at 5 × 10^3 cells per well of a 96-well microplate for 18 h. Cells were incubated at 37 °C in a humidified 5% CO2/95% air mixture and treated with the compounds at different concentrations for 72 h. At the end of drug exposure, cells were fixed with 50% trichloroacetic acid at 4 °C. After washing with distilled water, cells were stained with 0.1% sulforhodamine B, dissolved in 1% acetic acid (50 μL/well) for 30 min, and, subsequently, washed with 1% acetic acid to remove the unbound stain. The protein-bound stain was solubilized with 100 μL of 10 mM unbuffered Tris base, and the cell density was determined using a […] (wavelength 540 nm). Results are expressed as IC50 values (μM) ± SD.

[3] = as above; assay type: cell-based, human; settings: human; ratio of selectivity versus 5-FU; read-out: more selective than 5-FU in MCF-7
Method: as §1, §2

[4] = test system: HT-29 (colorectal adenocarcinoma); experiment: Sulforhodamine B in vitro growth inhibition assay, HT-29; assay type: cell-based, human; settings: for Selectivity Index (SI) MCF-10/HT-29: IC50 in non-cancerogenic cell line / IC50 in cancer cell line
Method: as §1, §2

[5] = Sulforhodamine B in vitro growth inhibition assay, PC-3; assay type: cell-based, human; settings: human; ratio of selectivity versus 5-FU; read-out: more selective than 5-FU in PC-3
Method: as §1, §2

[6] = test system: PC-3 (prostate adenocarcinoma); experiment: as above; assay type: cell-based, human; settings: for Selectivity Index (SI) MCF-10/PC-3: IC50 in non-cancerogenic cell line / IC50 in cancer cell line
Method: as §1, §2

[7] = biological target: T1, Human recombinant Topoisomerase I (Homo sapiens, UniProt P11387); experiment: Topoisomerase I activity, relaxation of supercoiled DNA (pEGFP-N1); assay type: biochemical; settings: 50 μM, agarose gel, result in words
T1 construct: purchased Sigma-Aldrich
T1 sequence (P11387 1-765): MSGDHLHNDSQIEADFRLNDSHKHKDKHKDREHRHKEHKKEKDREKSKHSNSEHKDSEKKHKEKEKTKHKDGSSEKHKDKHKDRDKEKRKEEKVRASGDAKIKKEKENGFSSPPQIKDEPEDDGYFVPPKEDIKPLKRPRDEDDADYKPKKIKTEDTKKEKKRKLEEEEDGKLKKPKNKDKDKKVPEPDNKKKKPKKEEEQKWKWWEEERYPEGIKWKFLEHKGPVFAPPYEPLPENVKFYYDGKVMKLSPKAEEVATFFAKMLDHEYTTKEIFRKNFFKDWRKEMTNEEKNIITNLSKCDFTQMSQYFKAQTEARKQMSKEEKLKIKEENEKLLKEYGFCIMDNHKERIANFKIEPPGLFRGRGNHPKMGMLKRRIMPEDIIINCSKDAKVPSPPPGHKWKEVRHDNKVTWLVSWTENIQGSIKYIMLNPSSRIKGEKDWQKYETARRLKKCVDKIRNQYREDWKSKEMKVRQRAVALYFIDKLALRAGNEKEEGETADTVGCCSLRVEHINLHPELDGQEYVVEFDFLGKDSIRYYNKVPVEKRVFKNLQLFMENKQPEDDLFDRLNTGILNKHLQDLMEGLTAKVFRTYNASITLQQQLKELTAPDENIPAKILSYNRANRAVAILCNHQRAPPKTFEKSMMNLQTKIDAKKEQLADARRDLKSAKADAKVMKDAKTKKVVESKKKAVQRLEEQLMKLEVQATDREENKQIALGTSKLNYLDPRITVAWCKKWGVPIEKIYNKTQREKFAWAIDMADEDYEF
Method: In this experiment, daunorubicin was used as control due to this compound being reported early as a TOPI inhibitor [31]. First, the optimal concentration of these compounds for the DNA relaxation assays was established.
Topoisomerase I activity was assayed by the relaxation of supercoiled DNA (pEGFP-N1) as the manufacturer’s instructions indicated. Human recombinant Topoisomerase I and buffer were from (Sigma-Aldrich). An amount of 2 μL of 10× topoisomerase I reaction buffer and 200 ng plasmid DNA and the indicated concentrations of compounds were incubated 30 min at 37 °C in Topo I buffer (500 mM Tris·HCl, pH 7.5, 1 M KCl, 10 mM dithiothreitol, 100 mM EDTA, 50 μg/mL acetylated bovine serum albumin (BSA)) in a total volume of 20 μL. The reaction was stopped by the addition of 5 μL of 5× loading dye (composition). Samples were electrophoresed on an 0.8% agarose gel without ethidium bromide for 2–3 h at 5 to 10 V/cm. The gel was stained with ethidium bromide and photographed with a UV transilluminator.

[8] = test system: MCF-10 control cells (normal breast epithelium); experiment: Sulforhodamine B in vitro growth inhibition assay, MCF-10 control cells; assay type: cell-based; settings: Homo sapiens, MCF10, 72 h of treatment, IC50 ± SD, non-tumoral cells
Method: as §1, §2

[9] = test system: HT-29 (colorectal adenocarcinoma); set-up: method as in PMID 25412045; settings: literature value, same experimental conditions; cited from earlier work
[10] = test system: MCF-10 control cells (normal breast epithelium); settings: literature value, same experimental conditions; cited from earlier work
[11] = test system: MCF-7 (breast adenocarcinoma); settings: literature value, same experimental conditions; cited from earlier work
[12] = test system: PC-3 (prostate adenocarcinoma); settings: literature value, same experimental conditions; cited from earlier work

CC1=C(C(=O)Oc2cc(C)cc(O)c2)[C@@]2(C)CCCC(C)(C)C2CC1 (stereo partly drawn) [6a, 3-Hydroxy-5-methylphenyl-(8aS)-2,5,5,8a-tetramethyl-3,4,4a,5,6,7,8,8a-octahydronaphthalene-1-carboxylate]
caspases-3/7 activity over the control [1]: two-fold
IC50 ([2]; Homo sapiens, MCF7, sulforhodamine B assay, 72 h of treatment, IC50 ± SD): 33.7 ± 1.3 µM
Selectivity Index (SI) MCF-10/MCF-7 [2]: 2.0
selectivity ratio at 72 h [3]: 100
IC50 ([4]; Homo sapiens, HT-29, sulforhodamine B assay, 72 h of treatment, IC50 ± SD): 56.9 ± 4 µM
Selectivity Index (SI) MCF-10/HT-29 [4]: 1.2
selectivity ratio at 72 h [5]: 20
IC50 ([6]; Homo sapiens, sulforhodamine B assay, 72 h of treatment, IC50 ± SD): 85.5 ± 7.1 µM
Selectivity Index (SI) MCF-10/PC-3 [6]: 0.8
inhibition of TOP1-induced DNA relaxation [7]: more prominent
IC50 [8]: 67.2 ± 6.3 µM

COc1cccc2c1C(=O)c1c(O)c3c(c(O)c1C2=O)C[C@@](O)(C(C)=O)C[C@@H]3O[C@H]1C[C@H](N)[C@H](O)[C@H](C)O1 [Daunorubicin, reference compound]
Selectivity Index (SI) MCF-10/MCF-7 [2]: 28
Selectivity Index (SI) MCF-10/HT-29 [4]: 0.6
IC50 [9]: 15.1 ± 0.5 µM
Selectivity Index (SI) MCF-10/PC-3 [6]: 23
IC50 [10]: 9.32 ± 1.01 µM
IC50 [11]: 0.33 ± 0.02 µM
inhibition of TOP1-induced DNA relaxation [7]: modified the TOP1-induced DNA relaxation in a minor way than compounds 6a and 8c
IC50 [12]: 0.41 ± 0.04 µM
